From PMC4729137, “Functional analysis of androgen receptor mutations that confer anti-androgen resistance identified in circulating cell-free DNA from prostate cancer patients” (Genome Biology, 2016)
Changes are numbered by the printed parent chain.

Assays:
Assay in all cases: cell-based
H875Y-AR = molecular target: T1, H875Y-AR (Homo sapiens, UniProt P10275, H875Y)
T1 sequence (P10275 1-920 H875Y): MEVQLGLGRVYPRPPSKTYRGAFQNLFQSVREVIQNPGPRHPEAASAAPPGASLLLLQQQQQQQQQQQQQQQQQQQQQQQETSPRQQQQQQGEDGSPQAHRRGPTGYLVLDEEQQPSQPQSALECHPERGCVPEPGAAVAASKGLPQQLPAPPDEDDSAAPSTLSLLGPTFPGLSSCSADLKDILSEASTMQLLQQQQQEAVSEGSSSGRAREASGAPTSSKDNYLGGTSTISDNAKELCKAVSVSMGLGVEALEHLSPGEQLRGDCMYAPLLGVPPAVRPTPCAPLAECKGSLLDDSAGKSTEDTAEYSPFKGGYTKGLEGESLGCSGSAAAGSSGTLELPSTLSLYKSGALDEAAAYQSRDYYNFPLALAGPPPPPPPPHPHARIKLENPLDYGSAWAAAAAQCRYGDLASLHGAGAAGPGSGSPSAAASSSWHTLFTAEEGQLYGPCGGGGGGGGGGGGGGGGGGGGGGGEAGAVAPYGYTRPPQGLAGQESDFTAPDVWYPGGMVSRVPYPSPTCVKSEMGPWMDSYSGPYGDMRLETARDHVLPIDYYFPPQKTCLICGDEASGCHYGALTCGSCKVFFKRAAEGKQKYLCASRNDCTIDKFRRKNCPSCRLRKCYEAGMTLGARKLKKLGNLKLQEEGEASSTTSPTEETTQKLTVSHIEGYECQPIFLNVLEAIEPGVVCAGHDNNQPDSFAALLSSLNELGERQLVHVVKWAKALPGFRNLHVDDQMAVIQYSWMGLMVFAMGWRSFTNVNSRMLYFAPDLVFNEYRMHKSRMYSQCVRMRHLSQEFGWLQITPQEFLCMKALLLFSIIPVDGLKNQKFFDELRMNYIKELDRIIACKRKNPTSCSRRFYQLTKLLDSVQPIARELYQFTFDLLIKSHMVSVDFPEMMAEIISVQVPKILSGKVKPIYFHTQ

E894K-AR = molecular target: T2, E894K-AR (Homo sapiens, UniProt P10275, E894K)
T2 sequence (P10275 1-920 E894K): T1 sequence (P10275 1-920 H875Y) with Y875H, E894K

WT-AR = molecular target: T3, WT-AR (Homo sapiens, UniProt P10275)
T3 sequence (P10275 1-920): T1 sequence (P10275 1-920 H875Y) with Y875H

Measured: EC50

C[C@]12CCC(=O)C=C1CC[C@@H]1[C@@H]2[C@@H](O)C[C@@]2(C)[C@H]1CC[C@]2(O)C(=O)CO [hydrocortisone]
> 500 nM: all assays above
